{"source": "patent US20100247564A1", "about": "“METHODS AND COMPOSITIONS FOR THE USE OF SARGASSUM FUSIFORME FOR THE INHIBITION OF HIV-1 INFECTION” (priority 2007, published 2010)", "key": {"BlaM-Vpr-X4-tropic NL4-3": {"tested_on": "BlaM-Vpr-X4-tropic NL4-3", "experiment": "microbe, parasite or virus in culture", "type": "cell-based, HIV-1"}, "recombinant HIV-1 RT": {"target": "T1, recombinant HIV-1 RT (Human immunodeficiency virus type 1 group M subtype B, UniProt P04585)", "T1 construct": "recombinant HIV-1 RT; purchased Ambion", "experiment": "Cell-free fluorescent reverse transcriptase (RT) assay", "type": "biochemical", "settings": "2-fold serial dilutions, two units recombinant HIV-1 RT"}, "[1]": {"tested_on": "cell fusion (anti-HIV activity)", "experiment": "Inhibition of cell fusion by individual fatty acids", "type": "cell-based", "settings": "Human immunodeficiency virus 1, read-out: percentage of inhibition of cell fusion; for inhibition at 1 µg/mL: 1 μg/ml; for inhibition at 5 µg/mL: 5 μg/ml", "description": "Anti-HIV activity of the individual fatty acids was tested at four different concentrations. The values given in Table 1 represent the percentage of inhibition of cell fusion in the presence of each fatty acid."}, "sCD4 [2]": {"target": "T2, sCD4 (Homo sapiens, UniProt P01730)", "T2 construct": "soluble CD4 (sCD4) protein; purchased Progenics Pharmaceuticals", "experiment": "Saturation transfer difference NMR (STD-NMR) binding to sCD4", "settings": "NMR buffer with 20% d6-DMSO, room temperature", "description": "FIGS. 15A-E show in vitro binding experiments of sCD4 with PA. FIG. 15A is a homonuclear NMR spectrum of 100 μM PA in the NMR buffer (10 mM KPO4 buffer, pH 7.0, 20% d6-DMSO, and 80% D2O). […] Tryptophan fluorescence was measured using an excitation wavelength of 280 nm. An increase of PA causes a red shift of 2 nm and quenching of the tryptophan fluorescence of sCD4.\nWe used a one-dimensional saturation transfer difference NMR (STD-NMR) experiment to characterize the binding of PA to sCD4 in vitro. […]\nTo perform the STD-NMR experiment, we used commercially available sCD4 (200 μg, 4.4 nmol, Progenics Pharmaceuticals), which was exchanged into the NMR buffer (160 μl of D2O and 40 μl d6-DMSO, containing 10 mM KPO4 buffer, pH 7.0). […] The NMR data were processed and analyzed using Topspin 2.0 (Bruker).\nDuring the STD-NMR experiment, we titrated increasing concentrations of PA into sCD4 solution, and observed PA binding to sCD4, as shown by an increase in the intensity of the ligand STD-NMR signal (FIGS. 15A and 15B). The intensity of the STD signal was quantified by calculating the difference between the intensity of one signal in the off-resonance NMR spectrum, or reference NMR spectrum (I0), and the intensity of a signal in the on-resonance NMR spectrum (Isat) for various concentrations of the ligand (FIG. 15C). […]"}, "ubiquitin": {"target": "ubiquitin (Homo sapiens, UniProt P0CG47)", "experiment": "Dot blot binding of 14C-labeled PA to ubiquitin", "settings": "100 μM 14C-PA", "description": "(§1) FIGS. 14A-C show the inhibition of HIV-1 fusion and CD4 interaction upon PA treatment. […] The percent of infected cells is indicated inside each quadrant. Cells were loaded with CCF2/AM dye and fusion was analyzed by multiparameter flow cytometry using a violet laser for excitation of CCF, and gated from 10,000 cells. […] The percent inhibition was plotted on the y-axis. […] The dot-blot membrane was washed and exposed to film, which was then scanned and the dot-blot total pixel mean value (intensity*mm^2) was quantified and plotted on the y-axis.\n(§2) To further test this hypothesis and reveal a possible physical interaction between PA and sCD4, we performed dot blot analysis with ^14C-labeled PA (^14C-PA) incubated together with increasing concentrations of sCD4, ubiquitin, or S100A12 proteins (FIG. 14C). PVDF membrane (BioRad) was pretreated with 100 μM PA for 1 hour at room temperature (RT). Indicated concentrations of each protein in 10 μl/well were run through the vacuum of the dot blot apparatus. The membrane was then incubated with 100 μM ^14C-labeled PA (^14C-PA) in 33% ethanol for 1 hour at room temperature, and then washed in 33% ethanol and exposed to film. Blot total pixel mean value intensity was quantified by Quantity One 4.6.1 software (BioRad)."}, "sCD4 [3]": {"target": "T2, sCD4", "experiment": "Dot blot binding of 14C-labeled PA to sCD4", "settings": "100 μM 14C-PA, increasing concentrations of sCD4", "description": "as §1, §2"}, "S100A12": {"target": "T3, S100A12 (Homo sapiens, UniProt P80511)", "T3 sequence (P80511 1-92)": "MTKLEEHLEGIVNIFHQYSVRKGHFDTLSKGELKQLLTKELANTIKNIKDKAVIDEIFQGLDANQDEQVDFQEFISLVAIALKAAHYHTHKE", "experiment": "Dot blot binding of 14C-labeled PA to S100A12", "settings": "100 μM 14C-PA", "description": "as §1, §2"}, "[4]": {"tested_on": "primary CCR5-tropic isolate ADA", "experiment": "HIV-1 ADA infection of microglia, p24 ELISA", "settings": "Human immunodeficiency virus 1, Microglia, 72 h", "experimental": "Either macrophages (A) or microglia (B) were treated for 24 hours with 1 mg/ml S. fusiforme or with 10^−6 M ddC, infected with primary CCR5-tropic isolate ADA at 0.2 pg of p24/cell for 2 hours, washed 3 times, and returned to culture. At the indicated time points after infection, HIV-1 expression was monitored by p24 production in cell-free supernatants by ELISA and the percent inhibition was calculated and plotted on the Y-axis.\nNext, we treated fetal microglial cell cultures with either 1 mg/ml of S. fusiforme or 10^−6 M ddC and monitored infection kinetics by p24 production in cell-free supenatants at the indicated time points after infection (FIG. 5B)."}, "1G5 T cells": {"tested_on": "1G5 T cells", "experiment": "Viability of HIV-1 infected 1G5 T cells (MTT uptake, trypan blue exclusion)", "type": "cell-based", "settings": "10^−6 M ddC", "description": "FIGS. 2A-B show the dose response of HIV-1 inhibition and cell viability in T cells treated with S. fusiforme. […] The cells were washed 3 times and then returned to culture. On day 3 after infection, intracellular luciferase gene marker expression was measured from cell lysates adjusted to the same number of viable cells using an MTT assay (A).\nFIGS. 3A-B show the time course of HIV-1 inhibition and viability in T cells. […] Cell viability was determined by trypan blue exclusion assay (B).\nNext, we investigated the ability of S. fusiforme extracts to inhibit HIV-1 infection in 1G5 T cells. […] On day 3 after infection, equal numbers of viable cells were analyzed for intracellular luciferase expression and cell viability was measured using an MTT uptake assay (FIG. 2). HIV-1 inhibition was calculated by comparing treated and untreated cell cultures (both infected with HIV-1). […] Treatment with ddC blocked virus replication by over 98%. In parallel, we tested for MTT uptake by viable cells, which remained high regardless of the concentration of S. fusiforme extract used in treatment (FIG. 2B).\nInfection was monitored by luciferase expression at specific time points after infection (FIG. 3A). […] Treatment with 2 mg/ml of S. fusiforme inhibited infection by 77, 99, and 99% on days 3, 5, and 7, respectively (FIG. 3A). Inhibition by ddC was 99% at each time point tested. […]"}, "[5]": {"tested_on": "HIV-1 (NL4-3) cell-to-cell fusion", "experiment": "Cell-to-cell infection and syncytia formation in co-culture (infected CEM/1G5; infected 1G5/GHOST)", "settings": "only 10^−6 M ddC"}, "[6]": {"tested_on": "CXCR4 tropic HIV-1 (NL4-3)", "experiment": "HIV-1 (NL4-3) replication in 1G5 T cells, luciferase expression", "type": "cell-based"}, "[7]": {"settings": "Human immunodeficiency virus 1, NL43, SUP-T1, read-out: inhibition of fusion"}}, "note": "Read-outs that look alike come from different tables or passages of the source.", "data": [{"compound": "c1cc(CN2CCCNCCNCCCNCC2)ccc1CN1CCCNCCNCCCNCC1", "note": "[AMD3100, reference compound]", "values": [{"measurement": "fusion positive cells", "setting": "BlaM-Vpr-X4-tropic NL4-3; 250 nM AMD3100, 51.5% without treatment", "value": 28.7, "unit": "%"}, {"measurement": "virus-positive cells", "setting": "BlaM-Vpr-X4-tropic NL4-3; AMD3100 in the PA experiment, 37.6% untreated", "value": 2.8, "unit": "%"}, {"measurement": "inhibition at 0.25 µM", "setting": "BlaM-Vpr-X4-tropic NL4-3; [7]", "value": 44.5, "unit": "%"}, {"measurement": "inhibition at 0.5 µM", "setting": "BlaM-Vpr-X4-tropic NL4-3; [7]", "value": 80, "unit": "%"}]}, {"compound": "CCCCC/C=C\\C/C=C\\CCCCCCCC(=O)O", "note": "[Linoleic acid, linoleic acid]", "values": [{"measurement": "RT inhibition (in words)", "setting": "recombinant HIV-1 RT", "value": "potent RT inhibitors"}, {"measurement": "inhibition at 1 µg/mL", "setting": "[1]", "value": 0, "unit": "%"}, {"measurement": "inhibition at 5 µg/mL", "setting": "[1]", "value": 0, "unit": "%"}]}, {"compound": "CCCCCCCCCCCCCC(=O)O", "note": "[Myristic acid, myristic acid]", "values": [{"measurement": "STD-NMR signal on titration into sCD4 solution", "setting": "sCD4 [2]", "value": "No STD-NMR signal was observed"}, {"measurement": "inhibition at 1 µg/mL", "setting": "[1]", "value": 8.8, "unit": "%"}, {"measurement": "inhibition at 5 µg/mL", "setting": "[1]", "value": 26.4, "unit": "%"}]}, {"compound": "CCCCCCCC/C=C\\CCCCCCCC(=O)O", "note": "[Oleic acid, oleic acid]", "values": [{"measurement": "RT inhibition (in words)", "setting": "recombinant HIV-1 RT", "value": "potent RT inhibitors"}, {"measurement": "inhibition at 1 µg/mL", "setting": "[1]", "value": 0, "unit": "%"}, {"measurement": "inhibition at 5 µg/mL", "setting": "[1]", "value": 0, "unit": "%"}]}, {"compound": "CCCCCCCCCCCCCCCC(=O)O", "note": "[^14C-PA]", "values": [{"measurement": "binding to ubiquitin (dot blot)", "setting": "ubiquitin", "value": "did not bind"}, {"measurement": "binding to sCD4 (dot blot)", "setting": "sCD4 [3]", "value": "dose-dependent"}, {"measurement": "binding to S100A12 (dot blot)", "setting": "S100A12", "value": "did not bind"}]}, {"compound": "Nc1ccn([C@H]2CC[C@@H](CO)O2)c(=O)n1", "note": "[ddC, 2′,3′-didoxycytidine]", "values": [{"measurement": "inhibition at 1 µM", "setting": "[4]; read-out: virus inhibition, 10^−6 M ddC, after day 3", "value": "> 90", "unit": "%"}, {"measurement": "inhibition at 1 µM", "setting": "[4]; read-out: virus inhibition, 10^−6 M ddC, day 3", "value": 72, "unit": "%"}, {"measurement": "cell viability compared with S. fusiforme-treated cultures", "setting": "1G5 T cells", "value": "similar"}, {"measurement": "inhibition of luciferase expression", "setting": "[5]", "value": 69, "unit": "%"}, {"measurement": "virus replication blocked", "setting": "[6]; 10^−6 M ddC, day 3 after infection", "value": "over 98%"}, {"measurement": "inhibition at 1 µM", "setting": "[6]; Human immunodeficiency virus 1, NL43, T-cell, read-out: inhibition of infection", "value": 99, "unit": "%"}, {"measurement": "luciferase expression", "setting": "[6]; ddC control culture, mock-treated 29,601 RLU", "value": 587, "unit": "RLU"}]}]}
